Experimental data published in patent publication US11666640B2, “Glucose oxidase compositions as a neonate anticonvulsant” (PENN STATE RESEARCH FOUNDATION, priority 2018, dated 2023).
Entries after “also recorded” stand apart in the source; their conditions may differ.

Molecular target: T1, CLC-3 Cl− channels (Mus musculus, UniProt P51791)
T1 construct: CA3 pyramidal neurons of hippocampal slices from neonatal mice; from tissue; host or cells: acute hippocampal slices (CA3 pyramidal neurons), C57BL/6 mice
T1 sequence (P51791 1-818): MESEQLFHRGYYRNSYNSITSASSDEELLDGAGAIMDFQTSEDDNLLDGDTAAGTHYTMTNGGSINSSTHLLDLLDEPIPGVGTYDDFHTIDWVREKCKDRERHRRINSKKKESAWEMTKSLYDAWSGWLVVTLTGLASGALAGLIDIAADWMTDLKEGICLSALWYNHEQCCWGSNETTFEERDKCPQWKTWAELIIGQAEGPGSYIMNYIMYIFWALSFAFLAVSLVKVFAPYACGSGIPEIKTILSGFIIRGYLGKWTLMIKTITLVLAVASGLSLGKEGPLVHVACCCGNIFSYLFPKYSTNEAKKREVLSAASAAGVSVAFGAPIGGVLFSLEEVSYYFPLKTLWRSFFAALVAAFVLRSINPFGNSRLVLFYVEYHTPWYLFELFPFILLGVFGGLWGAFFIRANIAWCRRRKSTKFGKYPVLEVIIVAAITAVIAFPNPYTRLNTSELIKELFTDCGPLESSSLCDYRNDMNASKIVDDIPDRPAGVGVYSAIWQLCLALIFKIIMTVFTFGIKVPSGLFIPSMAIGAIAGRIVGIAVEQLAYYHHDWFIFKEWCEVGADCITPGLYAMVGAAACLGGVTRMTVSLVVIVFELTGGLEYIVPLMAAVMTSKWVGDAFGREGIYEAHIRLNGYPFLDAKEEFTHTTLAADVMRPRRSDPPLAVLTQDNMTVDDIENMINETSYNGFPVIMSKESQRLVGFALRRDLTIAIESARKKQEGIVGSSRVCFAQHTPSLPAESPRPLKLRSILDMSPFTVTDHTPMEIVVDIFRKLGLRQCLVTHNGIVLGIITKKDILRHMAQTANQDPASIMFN
Assay: Voltage-dependent outward rectifying Cl− currents in CA3 pyramidal neurons of hippocampal slices
Type: cell-based

Compound: O=C([O-])[C@H](O)[C@@H](O)[C@H](O)[C@H](O)CO.[Na+] [NaGcA, D-gluconic acid sodium salt]
- Cl− currents after 0 Mg2+ treatment (inhibition) (0 Mg2+ aCSF 1 hr, 20 mM NaGcA, sodium salt): remarkable inhibition; also recorded: significantly inhibited; also recorded: significantly blocked; also recorded: remarkably inhibited
- Cl− current density after 0 Mg2+ treatment (0 Mg2+ aCSF 1 hr, recorded in 20 mM NaGcA, +90 mV): 7.3±0.6 pA/pF
- Cl− currents in neonatal CA3 pyramidal neurons (20 mM NaGcA, neonatal, sodium salt): dramatically reduced; also recorded: potent inhibitor; also recorded: remarkably inhibited
- Cl− currents in CLC-3 KO mice (CLC-3 KO mice, NaGcA, sodium salt): little inhibition; also recorded: no effect
- Cl− current inhibition by gluconic acid with various counter ions (P8-12 neonatal mice, 20 mM NaGcA, 10 mM Mg(GcA)2, 20 mM gluconic acid): equivalent Cl− current inhibition
- Cl− currents in adult brains (adult (P60-62), 20 mM NaGcA): no effect
